The results in this text go back to ChEMBL document CHEMBL1151672, “Amarogentin, a naturally occurring secoiridoid glycoside and a newly recognized inhibitor of topoisomerase I from Leishmania donovani” (J Nat Prod, 1996).

The test system of the experiment is Leishmania donovani. Briefly: Inhibition of 2 units of Leishmania donovani MHOM/IN/1978/UR6 DNA topoisomerase 1-mediated supercoiled pGEM4Z DNA relaxation at 5 to 10 uM preincubated for 10 mins prior to DNA addition by agarose gel electrophoresis.

Molecules are shown by their SMILES. Activity calls are given as the source filed them. The rule behind the calls is not given here.

As to `CC[C@@]1(O)C(=O)OCc2c1cc1n(c2=O)Cc2cc3ccccc3nc2-1`, the result was Active.
